Patent US6552000B2, “Anticonvulsant derivatives useful in treating autism” (Ortho-McNeil Pharmaceutical, Inc., priority 1999, dated 2003)

Tests used:
kindled epilepsy = details: animal model of kindled epilepsy; cited from earlier work
partial onset seizures = experiment: placebo controlled, add on trials in partial onset seizures; assay type: in vivo; details: adults and children with partial onset seizures
From the text: There is also known enhancement of GABA activity in the brain along with reduced glutamate receptor activity. Accordingly, compounds of formula I are useful in the treatment of autism.

seizures = details: several rodent models of epilepsy; cited from earlier work
[1] = system: simple and complex partial seizures and secondarily generalized seizures; details: clinical trials of human epilepsy; adjunctive therapy or monotherapy; cited from earlier work

SMILES: CC1(C)O[C@@H]2[C@@H](CO[C@@]3(COS(N)(=O)=O)OC(C)(C)O[C@@H]23)O1 [topiramate, 2,3:4,5-bis-O-(1-methylethylidene)-β-D-fructopyranose sulfamate]
- block of seizures (kindled epilepsy): effectively block seizures
- reduction of seizure rate versus placebo (partial onset seizures): statistically significant reduction of seizure rate
- block of seizures (seizures): effectively block seizures
- efficacy in treating simple and complex partial seizures and secondarily generalized seizures [1]: effective
